{"source": "patent US20090285917A1", "about": "“COMPOSITION COMPRISING COMPLEX CRUDE DRUG EXTRACTS SHOWING ANTI-ALLERGIC RHINITIS, ANTI-ATOPIC DERMATITIS AND ANTI-ASTHMA ACTIVITY” (priority 2006, published 2009)", "system": "Passive Cutaneous Anaphylaxis in male mouse", "experiment": "Passive cutaneous anaphylaxis (PCA), evans blue in ears", "type": "in vivo", "protocol": "Anti-DNP (anti-Dinitrophenyl) of 1.2 ug/mL, […], Sigma was injected by 10 ul into both ears of a male mouse, and 47 hours after antibody Dinitrophenyl injection, the sample is oral-administrated. One hour later (48 hours after antibody-Dinitrophenyl injection), 1.25 mg of DNP-albumin, […], Sigma and a biological salt solution dissolved with 1.25 mg of evans blue, […], Sigma was injected into a tail vein for thereby causing a certain reaction. Neck back bone was broken, and the mouse was dead, and the evans blue color component was measured from both ears. As control groups, promethazine hydrochloride, […], Sigma was used.", "note": "Counter-ions that a name gives are not always drawn.", "data": [{"smiles": "CC(CN1c2ccccc2Sc2ccccc21)N(C)C", "note": "(stereo not drawn) [Promethazine hydrochloride, promethazine hydrochloride]", "values": [{"measurement": "Amount of Color", "setting": "administration amount 2, oral", "value": "7.8 ± 0.5 ug/a pair of ears"}, {"measurement": "Amount of Color", "setting": "administration amount 5, oral", "value": "5.4 ± 1.1 ug/a pair of ears"}, {"measurement": "Amount of Color", "setting": "administration amount 10, oral", "value": "1.7 ± 1.0 ug/a pair of ears"}]}]}
